System: MEK
Test: MEK inhibition in PBMCs of healthy human volunteers (pERK/ERK, Wes)
Format: in vivo
Method: PBMCs were isolated from the same blood samples (30 µl mouse blood, 50 µl hamster blood, or 1 ml dog blood) used for pharmacokinetic analysis. After plasma separation as described in the section above (Blood sampling and preparation of plasma samples), the remaining red blood cells were lysed by adding 1 volume of red blood cell (RBC) lysis buffer (Thermo Fisher Scientific, Waltham, MA, United States) (300 µl for mice, 500 µl for hamster, and 10 ml for dogs). The samples were incubated for 15 min at RT and centrifuged at 500 x g for 5 min (RT). The supernatant was removed completely, and the pellet was washed twice with PBS. The PBMC cell pellets were store at −80°C until further analysis. PBMCs of 8 ml human blood were isolated using CPT^TM tubes. After a 20-min centrifugation at 1,650 x g at room temperature, the plasma was collected for PK analysis as described in the section above (Blood sampling and preparation of plasma samples). The PBMC layer was collected in a 15 ml tube (Greiner Bio-One, Frickenhausen, Germany), and washed twice with PBS by centrifugation at 300 x g for 10 min at RT. The PBMC pellets were store at −80°C until further PD assessment.
The pharmacodynamic assessment was performed using the Wes™ (Simple Western™) system which uses capillary electrophoresis to separate, identify and quantify proteins of interest. A chemiluminescence signal for each identified protein is detected and the area under the peak is calculated, which is then used for quantification. The 0.1x Sample Buffer, 400 mM dithiothreitol (DTT) solution, 5x Fluorescence Master Mix, and the Biotinylated Ladder (ProteinSimple®, Abingdon, Oxford, United Kingdom) were prepared according to manufacturer’s instructions. For all species, PBMCs were lysed in 1x radioimmunoprecipitation assay (RIPA) buffer (containing 0.24% (w/v) tris base (Sigma-Aldrich, St. Louis, MO, United States), 0.88% (w/v) NaCl (Carl Roth GmbH, Karlsruhe, Germany), 0.2% (v/v) 500 mM EDTA (Sigma-Aldrich), 1% (v/v) Triton X-100 (Sigma-Aldrich), 0.5% (w/v) sodium deoxycholate (Sigma-Aldrich), 0.1% (w/v) sodium dodecyl sulfate (SDS) (Carl Roth), 10% (v/v) glycerol (Carl Roth), 0.05% phenylmethyl sulfonyl fluoride (PMSF) (Carl Roth), 0.01% Benzonase® Nuclease (Sigma-Aldrich), protease inhibitor cocktail (Roche, Basel, Switzerland), and phosphatase inhibitor cocktail (Roche) in H2O), further diluted with 0.1x Sample Buffer (ProteinSimple®, Abingdon, Oxford, United Kingdom) to adjust the protein concentration to 1 μg/μl. Then the 5x Fluorescence Master Mix in DTT (ProteinSimple®) was added, and the samples were denatured for 5 min at 95°C, loaded onto the assay plate and analyzed using specific antibodies. […] The anti-rabbit secondary antibody (Cat# DM-001) was also purchased from ProteinSimple® and was ready to use. Data were analyzed with Compass software for simple western (ProteinSimple®). Using the ratio of pERK to ERK of each sample compared to control (pre-dose), the level of ERK phosphorylation was calculated and then converted into the percentage level of MEK inhibition.

[1] = single oral dose 100 mg, vs pre-dose
[2] = single oral dose 300 mg, vs pre-dose
[3] = single oral dose 600 mg, vs pre-dose
[4] = single oral dose 900 mg, vs pre-dose

`O=C(O)c1ccc(F)c(F)c1Nc1ccc(I)cc1Cl` [zapnometinib, 2-(2-Chloro-4-Iodophenylamino)-N-3,4-Difluoro benzoic acid] was tested, and the “MEK inhibition at Cmax” value (doses 100, 300 and 600 mg taken together) was “approximately 60%”, the “MEK inhibition at 24 h” value [1] was 35 ± 25% and the “MEK inhibition at Cmax” value [1] was 63 ± 8%. For the same compound, the “MEK inhibition at 24 h” value [2] was 41 ± 26%, the “MEK inhibition at Cmax” value [2] was 61 ± 18% and the “MEK inhibition at 24 h” value [3] was 37 ± 20%. The “MEK inhibition at Cmax” value [3] was 64 ± 22%, the “MEK inhibition at 24 h” value [4] was 26 ± 26% and the “MEK inhibition at Cmax” value [4] was 79 ± 20%.

Source: paper PMC9240354, “Pharmacokinetics, Pharmacodynamics and Antiviral Efficacy of the MEK Inhibitor Zapnometinib in Animal Models and in Humans” (Frontiers in Pharmacology, 2022)
